Test results: patent publication US12576081B2 (MEZZION PHARMA CO., LTD., priority 2019, dated 2026)
“And” between values parts separate entries of the source, which are not always exact repeats. Equal entries are not always repeated.

Columns and labels:
[1] = system: adolescents with SVHD who had undergone Fontan palliation; assay: FUEL trial, resting data; format: in vivo, human
Protocol: (§1) The FUEL Trial was conducted at 30 centers around the world. […] (Funded by Mezzion Pharma Co. Ltd., and conducted by the National Heart, Lung, and Blood Institute-funded Pediatric Heart Network; ClinicalTrials.gov number NCT02741115).
(§2) The primary outcome was the change in oxygen consumption at peak exercise (max or peak VO2) from baseline to the 26-week visit. Secondary exercise outcomes included change in additional measures at maximal exertion, as well as change in measures of submaximal exercise at the ventilatory anaerobic threshold (VAT). The primary outcome for clinical secondary aims included change in myocardial performance index (MPI), an echocardiographically-derived measure of systolic and diastolic ventricular function, change in log-transformed reactive hyperemia index (lnRHI), a PAT-derived measure of peripheral vascular function, and change in log-transformed serum BNP level. Safety was monitored through adverse event reports, which were collected according to a pre-specified protocol of study coordinator outreach, and through ad hoc patient and family communication with members of the study team at each site.
Individuals between the ages of 12 and 18 years (inclusive) who had undergone the Fontan procedure, who were not receiving treatment with a PDE5 inhibitor, who were ≥40 kg, and who met the minimum height requirement for cycle ergometry (≥132 cm) were eligible for enrollment.
Randomization assignments were generated by a web-based algorithm after confirmation of trial eligibility and consent.
(§3) Baseline clinical testing completed before drug initiation included a blood draw to measure brain-type natriuretic peptide (BNP) level, a cardiopulmonary exercise test (CPET) using a standardized cycle ergometer ramp protocol, a standardized echocardiogram, and an assessment of peripheral vascular function using peripheral arterial tonometry (PAT) measured by finger cuff (EndoPAT; Itamar Medical, Israel). Participants who achieved maximal effort, defined as respiratory exchange ratio (RER)≥1.10 at peak exercise during CPET, were eligible for randomization and study drug initiation. […] End-of-study clinical testing included repeat measurement of serum BNP, CPET, echocardiogram, and PAT.
A sample size of 200 participants per arm was chosen to allow for 90% power to detect a mean treatment difference in change from baseline to 26-week testing in max VO2 of 10% with a type 1 error of 0.05. The following assumption were made: a baseline standard deviation of 7.235 ml/kg/min, a correlation between max VO2 measurements of 0.33, a drop-out and incomplete testing rate of 10%, and failure to reach maximal effort at the 26-week exercise testing in 15% of participants. These assumptions were based on historical data and reflect a conservative approach to assessing within-participant correlations and failure to reach maximal effort. The primary analysis used the intention-to-treat population to evaluate the difference in the change in the primary outcome between treatment arms. This difference was assessed with an analysis of covariance (ANCOVA) with fixed factors for ventricular morphology (single left versus single right or mixed) and treatment group, with a continuous covariate of baseline max VO2. For those without data at the 26-week visit, this value was imputed as equal to the baseline value (no change). […] Secondary outcomes of continuous data points were analyzed in the manner described for the primary outcome. […]

[2] = system: adolescents with SVHD who had undergone Fontan palliation; assay: FUEL trial, cardiopulmonary exercise test (cycle ergometer ramp protocol), peak exercise and ventilatory anaerobic threshold; format: in vivo, human
Protocol: as §1, §2, §3
A sample size of 200 participants per arm was chosen to allow for 90% power to detect a mean treatment difference in change from baseline to 26-week testing in max VO2 of 10% with a type 1 error of 0.05. The following assumption were made: a baseline standard deviation of 7.235 ml/kg/min, a correlation between max VO2 measurements of 0.33, a drop-out and incomplete testing rate of 10%, and failure to reach maximal effort at the 26-week exercise testing in 15% of participants. These assumptions were based on historical data and reflect a conservative approach to assessing within-participant correlations and failure to reach maximal effort. The primary analysis used the intention-to-treat population to evaluate the difference in the change in the primary outcome between treatment arms. This difference was assessed with an analysis of covariance (ANCOVA) with fixed factors for ventricular morphology (single left versus single right or mixed) and treatment group, with a continuous covariate of baseline max VO2. For those without data at the 26-week visit, this value was imputed as equal to the baseline value (no change). Secondary analyses included participants who successfully completed the protocol with measurable values at each of the secondary endpoints. Secondary outcomes of continuous data points were analyzed in the manner described for the primary outcome. In order to assess the generalizability of findings at the ventilatory anaerobic threshold, demographic and clinical characteristics were compared between participants without paired VO2 at VAT data and those comprising the remainder of the cohort.
The FUEL Trial was a Phase III clinical trial conducted at 30 centers. […] The primary outcome was the between group difference in change in oxygen consumption at peak exercise. Secondary outcomes included between group differences in changes in sub-maximal exercise at the ventilatory anaerobic threshold (VAT), the myocardial performance index (MPI), the natural log of the reactive hyperemia index (lnRHI), and serum brain-type natriuretic peptide (BNP). […]

[3] = system: adolescents with Fontan physiology; settings: cited from earlier work
[4] = system: adolescents with SVHD who had undergone Fontan palliation; assay: FUEL trial, echocardiographic myocardial performance index (blood pool Doppler); format: in vivo, human; settings: for MPI difference, Week 26 − Baseline, mean (SD): paired data, decrease shows improvement, p 0.028 vs placebo
Text: Generally speaking, MPI (also referred to as the Doppler-derived index or Tei Index) is a measure of ventricular systolic and diastolic function as determined by a focused echocardiogram. It combines systolic and diastolic time intervals to assess heart function. More specifically, MPI can be used to assess ventricular performance represented by a numeric value using cardiac time intervals. This numeric value equals the sum of isovolumetric contraction time (ICT) and isovolumetric relaxation time (IRT) divided by ejection time (ET) and can be determined for either the left or right ventricle. Pellett, A. A., et al.: The Tei Index: Methodology and Disease. State Values. Echocardiography. A Jrnl. of CV Ultrasound & Allied Tech. 21(7):669-672 (2004); and Ulugay, A., Tatli E.: Myocardial performance index. Anadolu Kardiyol Derg 8(2):143-8 (April, 2008), both of which are incorporated herein by reference in their entireties. In the FUEL Trial, the MPI measured the performance of the single functioning ventricle. Thus, the MPI results from the FUEL Trial were determined by velocities obtained from blood pool Doppler assessment of the inflow and outflow tract of the functioning single ventricle. In other words, the FUEL Trial MPI was determined by measuring the cardiac time intervals using pulsed-wave Doppler velocity spectra of the ventricular inflow and outflow of the single functioning ventricle.
Echocardiograms were performed by sonographers with specific training for this protocol. The primary outcome of interest was MPI using Doppler-based measures of inflow and outflow duration. The duration of inflow into the dominant ventricle and outflow across the dominant semilunar valve were measured and used to calculate MPI using the standard formula. Tei C, Ling L H, Hodge D O, et al.: New index of combined systolic and diastolic myocardial performance: a simple and reproducible measure of cardiac—a study in normals and dilated cardiomyopathy. J Cardiol, 26(6):357-66 (1995); and Pellet A A et al.: The Tei Index Methodology and Disease State Values. Echocardiography: A Jrnl Of CV Ultrasound & Allied Tech, 21(7):669-672 (2004) Additional tissue Doppler images were obtained and used to calculate the tissue Doppler based MPI as previously described. Harada K, Tamura M, Toyono M et al.: Comparison of the right ventricular Tei index by tissue Doppler imaging to that obtained by pulsed Doppler in children without heart disease. Am J Cardiol, 90(5):566-9 (2002). Whenever possible, three measurements were made and the mean duration was used for the calculation.
as §2
Baseline clinical testing completed before drug initiation included a blood draw to measure brain-type natriuretic peptide (BNP) level, a cardiopulmonary exercise test (CPET) using a standardized cycle ergometer ramp protocol, a standardized echocardiogram, and an assessment of peripheral vascular function using peripheral arterial tonometry (PAT) measured by finger cuff (EndoPAT; Itamar Medical, Israel). […]

[5] = system: adolescents with SVHD who had undergone Fontan palliation; assay: FUEL trial, safety and tolerability (adverse event reports); format: in vivo, human
Text: as §2
The primary outcome for clinical secondary aims included the between group differences in change in myocardial performance index (MPI), an echocardiographically-derived measure of systolic and diastolic ventricular function, change in log-transformed reactive hyperemia index (lnRHI), a PAT-derived measure of peripheral vascular function, and change in log-transformed serum BNP level. Measurements for each of these secondary outcomes were performed at core labs. Safety was monitored through adverse event reports, which were collected according to a pre-specified protocol of study coordinator outreach, and through adhoc patient and family communication with members of the study team at each site.
A sample size of 200 participants per arm was chosen to allow for 90% power to detect a mean treatment difference in change from baseline to 26-week testing in peak VO2 of 10% with a type 1 error of 0.05. We assumed a baseline standard deviation of 7.235 ml/kg/min, a correlation between peak VO2 measurements of 0.33, a drop-out and incomplete testing rate of 10%, and failure to reach maximal effort at the 26-week exercise testing in 15% of participants. These assumptions were based on historical data and reflect a conservative approach to assessing within-participant correlations and failure to reach maximal effort and the analysis was performed using a two-sample, independent means t-test. The primary analysis used the intention-to-treat population to evaluate the difference in the change in the primary outcome between treatment arms. This difference was assessed with an analysis of covariance (ANCOVA) with fixed factors for ventricular morphology (single left versus single right or mixed) and treatment group, with a continuous covariate of baseline peak VO2. For those without data at the 26-week visit, this value was imputed as equal to the baseline value (no change). The alpha level was set at 0.05 with two-sided testing. All statistical analyses were performed using SAS statistical software 9.4 (SAS Institute, Inc., Cary, North Carolina). Secondary analyses included participants who successfully completed the protocol with measurable values at each of the secondary endpoints. Secondary outcomes of continuous data points were analyzed in the manner described for the primary outcome. In order to assess the generalizability of findings at the ventilatory anaerobic threshold, demographic and clinical characteristics were compared between participants without paired VO2 at VAT data and those comprising the remainder of the cohort using the Student's t-test and Fisher's exact test. Fisher's exact test was used to compare adverse events between the udenafil and placebo cohorts.

[6] = 87.5 mg twice daily, baseline to week 26
[7] = baseline before drug, mean ± SD (n)

CCCOc1ccc(S(=O)(=O)NCCC2CCCN2C)cc1-c1nc2c(CCC)nn(C)c2c(=O)[nH]1 (centres unmarked) [Udenafil, udenafil]
Resting oxygen saturation, change ([1]; 87.5 mg twice daily, baseline to week 26, mean ± SD (n), p 0.002 vs placebo): 0.5%
Resting diastolic blood pressure, change ([1]; 87.5 mg twice daily, baseline to week 26, mean ± SD (n), p 0.003 vs placebo): −2.9 mmHg
Resting diastolic blood pressure, change vs placebo (in words) ([1]; baseline to 26-week testing): small but statistically significant decrease
Resting heart rate, respiratory rate, or systolic blood pressure, change vs placebo (in words) ([1]; baseline to 26-week testing): no difference
Resting oxygen saturation, change vs placebo (in words) ([1]; baseline to 26-week testing): small but statistically significant increase
Peak VO2 (VO2 max), increase in percent [2, 6]: 2.8%
VE/VCO2 at VAT, decrease in percent [2, 6]: 2.1%
Work rate at VAT, improvement in percent [2, 6]: 5.5% and 5.2%
VO2 at VAT, improvement in percent ([2]; 87.5 mg twice daily, baseline to week 26, paired data): 3.2%
Anaerobic threshold oxygen consumption (VO2 at VAT), change ([2]; 87.5 mg twice daily, baseline to week 26, paired data, mean ± SD (n), p 0.023 vs placebo (p=0.012)): 30 mL/min and 33 ± 185 mL/min and 29.7 mL/min
Peak exercise heart rate, baseline [2, 7]: 165 ± 20 (200) bpm
Peak exercise minute ventilation, baseline [2, 7]: 71 ± 21 (199) L/min
Peak exercise respiratory rate, baseline [2, 7]: 51 ± 11 (199) breaths/min
Peak exercise work rate, baseline [2, 7]: 120 ± 32 (198) W
Average serum concentration ([3]; 87.5 mg twice daily compared with other tested regimens): highest average serum concentration
Dose-limiting adverse events ([3]; 87.5 mg twice daily): not associated with dose-limiting adverse events
Tolerability ([3]; all tested dosing regimens): tolerability at all tested dosing regimens
MPI, max of the difference Week 26 − Baseline ([4]; 87.5 mg twice daily): 0.2
MPI, median (interquartile range) of the difference Week 26 − Baseline ([4]; 87.5 mg twice daily): −0.01 (−0.11, 0.05)
MPI, min of the difference Week 26 − Baseline ([4]; 87.5 mg twice daily): −.3
MPI difference, Week 26 − Baseline, mean (SD) ([4]; 87.5 mg twice daily): 122: −0.02 (0.113)
MPI difference, Week 26 − Baseline, mean (SD) ([4]; 87.5 mg twice daily, listed as udenafil): −0.02
MPI, LS mean dif A − B (SE), baseline ([4]; udenafil minus placebo, baseline, p 0.818): −0.0 (0.018)
MPI, LS mean dif A − B (SE), Week 26 ([4]; udenafil minus placebo, week 26, p 0.024): −0.04 (0.018)
MPI, LS mean dif A − B (SE), difference Week 26 − Baseline ([4]; udenafil minus placebo, p 0.028): −0.03 (0.014)
Participants who experienced a serious adverse event ([5]; human, in vivo, 26 weeks): 14
Serious adverse events with possible, probable, or definite relationship to study drug ([5]; human, in vivo, 26 weeks): 3 events
Adverse events more common than in the placebo group ([5]; in vivo): Headache, facial flushing, abdominal pain, epistaxis, and erection (male participants) were more common
Priapism ([5]; in vivo): no reported episodes of priapism
Serious adverse events related to study drug, kind ([5]; in vivo): unilateral retinal artery and vein thrombosis, transient lower extremity diplegia, and transient dyspnea
Non-serious adverse event: increased erection, participants ([5]; male, human, in vivo, 26 weeks): 13 (11.7) n (%)
Deaths ([5]; study cohort, 26 weeks): no deaths
